Reference: paper PMC5384871 (British journal of haematology, 2017)

Experiments:
Assay in all cases: biochemical kinase assay at […] ATP
Details in all cases: read-out: NDI-031301
JAK1 = JAK1 (Homo sapiens, UniProt P23458)
JAK2 = JAK2 (Homo sapiens, UniProt O60674)
JAK3 = target: T1, JAK3 (Homo sapiens, UniProt P52333)
T1 sequence (P52333 1-1124): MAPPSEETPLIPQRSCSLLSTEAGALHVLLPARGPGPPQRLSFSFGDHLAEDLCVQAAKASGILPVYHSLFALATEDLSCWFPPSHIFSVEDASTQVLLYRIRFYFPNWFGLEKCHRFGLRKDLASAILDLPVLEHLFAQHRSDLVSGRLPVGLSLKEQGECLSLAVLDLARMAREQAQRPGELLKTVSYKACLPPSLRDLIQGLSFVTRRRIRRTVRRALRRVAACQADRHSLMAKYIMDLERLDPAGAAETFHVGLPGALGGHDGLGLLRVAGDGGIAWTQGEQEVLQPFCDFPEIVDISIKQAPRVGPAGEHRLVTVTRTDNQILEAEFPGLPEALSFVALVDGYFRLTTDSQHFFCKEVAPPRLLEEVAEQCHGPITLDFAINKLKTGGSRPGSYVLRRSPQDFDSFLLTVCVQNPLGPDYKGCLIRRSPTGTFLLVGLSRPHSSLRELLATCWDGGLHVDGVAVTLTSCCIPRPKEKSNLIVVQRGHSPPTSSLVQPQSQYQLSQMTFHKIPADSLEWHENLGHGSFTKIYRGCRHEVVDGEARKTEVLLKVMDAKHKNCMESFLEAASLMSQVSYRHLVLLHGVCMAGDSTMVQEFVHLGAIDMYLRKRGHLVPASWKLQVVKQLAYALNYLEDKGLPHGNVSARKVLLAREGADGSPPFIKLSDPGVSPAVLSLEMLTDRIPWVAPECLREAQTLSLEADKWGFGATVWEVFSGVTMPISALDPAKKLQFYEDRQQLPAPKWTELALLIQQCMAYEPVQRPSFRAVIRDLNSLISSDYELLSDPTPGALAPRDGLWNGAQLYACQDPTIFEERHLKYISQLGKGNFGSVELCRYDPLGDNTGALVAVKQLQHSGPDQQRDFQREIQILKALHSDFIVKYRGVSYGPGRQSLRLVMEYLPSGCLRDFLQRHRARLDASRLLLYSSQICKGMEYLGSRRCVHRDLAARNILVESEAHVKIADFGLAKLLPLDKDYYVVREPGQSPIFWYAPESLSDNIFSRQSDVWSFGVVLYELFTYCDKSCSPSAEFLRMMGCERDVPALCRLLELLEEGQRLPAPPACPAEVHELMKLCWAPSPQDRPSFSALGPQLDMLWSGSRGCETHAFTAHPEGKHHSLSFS

TYK2 = TYK2 (Homo sapiens, UniProt P29597)
Sequence of TYK2 (P29597 whole entry): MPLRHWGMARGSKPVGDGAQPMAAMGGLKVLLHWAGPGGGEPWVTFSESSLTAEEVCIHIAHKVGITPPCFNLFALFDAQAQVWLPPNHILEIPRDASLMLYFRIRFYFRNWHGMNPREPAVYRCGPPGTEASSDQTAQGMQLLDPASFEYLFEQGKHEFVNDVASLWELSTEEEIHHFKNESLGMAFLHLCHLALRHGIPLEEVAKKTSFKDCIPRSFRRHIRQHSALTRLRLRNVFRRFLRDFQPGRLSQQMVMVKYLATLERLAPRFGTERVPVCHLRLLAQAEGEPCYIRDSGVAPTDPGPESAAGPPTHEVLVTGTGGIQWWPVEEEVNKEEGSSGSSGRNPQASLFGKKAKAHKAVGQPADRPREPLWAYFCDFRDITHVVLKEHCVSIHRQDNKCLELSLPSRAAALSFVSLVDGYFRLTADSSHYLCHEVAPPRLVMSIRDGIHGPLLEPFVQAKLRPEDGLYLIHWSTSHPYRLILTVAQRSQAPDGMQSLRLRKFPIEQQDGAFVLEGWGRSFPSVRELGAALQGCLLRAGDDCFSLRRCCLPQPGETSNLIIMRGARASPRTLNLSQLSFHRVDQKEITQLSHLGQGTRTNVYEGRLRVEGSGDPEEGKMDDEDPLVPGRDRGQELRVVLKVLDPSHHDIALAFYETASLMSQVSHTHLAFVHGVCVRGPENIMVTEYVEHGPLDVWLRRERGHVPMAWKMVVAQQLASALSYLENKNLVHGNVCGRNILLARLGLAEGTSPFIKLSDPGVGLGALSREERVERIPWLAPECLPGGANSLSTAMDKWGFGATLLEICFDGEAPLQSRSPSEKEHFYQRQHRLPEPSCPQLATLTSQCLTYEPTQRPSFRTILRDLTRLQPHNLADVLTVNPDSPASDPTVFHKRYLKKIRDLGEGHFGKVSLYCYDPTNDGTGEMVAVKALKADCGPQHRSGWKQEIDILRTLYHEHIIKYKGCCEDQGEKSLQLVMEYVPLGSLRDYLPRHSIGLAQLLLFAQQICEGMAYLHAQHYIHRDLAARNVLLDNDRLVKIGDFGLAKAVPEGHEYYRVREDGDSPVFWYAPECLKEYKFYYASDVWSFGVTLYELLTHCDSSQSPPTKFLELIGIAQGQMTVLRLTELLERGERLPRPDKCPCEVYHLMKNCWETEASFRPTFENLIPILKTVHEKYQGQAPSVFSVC

Sequence of JAK1 (P23458 whole entry): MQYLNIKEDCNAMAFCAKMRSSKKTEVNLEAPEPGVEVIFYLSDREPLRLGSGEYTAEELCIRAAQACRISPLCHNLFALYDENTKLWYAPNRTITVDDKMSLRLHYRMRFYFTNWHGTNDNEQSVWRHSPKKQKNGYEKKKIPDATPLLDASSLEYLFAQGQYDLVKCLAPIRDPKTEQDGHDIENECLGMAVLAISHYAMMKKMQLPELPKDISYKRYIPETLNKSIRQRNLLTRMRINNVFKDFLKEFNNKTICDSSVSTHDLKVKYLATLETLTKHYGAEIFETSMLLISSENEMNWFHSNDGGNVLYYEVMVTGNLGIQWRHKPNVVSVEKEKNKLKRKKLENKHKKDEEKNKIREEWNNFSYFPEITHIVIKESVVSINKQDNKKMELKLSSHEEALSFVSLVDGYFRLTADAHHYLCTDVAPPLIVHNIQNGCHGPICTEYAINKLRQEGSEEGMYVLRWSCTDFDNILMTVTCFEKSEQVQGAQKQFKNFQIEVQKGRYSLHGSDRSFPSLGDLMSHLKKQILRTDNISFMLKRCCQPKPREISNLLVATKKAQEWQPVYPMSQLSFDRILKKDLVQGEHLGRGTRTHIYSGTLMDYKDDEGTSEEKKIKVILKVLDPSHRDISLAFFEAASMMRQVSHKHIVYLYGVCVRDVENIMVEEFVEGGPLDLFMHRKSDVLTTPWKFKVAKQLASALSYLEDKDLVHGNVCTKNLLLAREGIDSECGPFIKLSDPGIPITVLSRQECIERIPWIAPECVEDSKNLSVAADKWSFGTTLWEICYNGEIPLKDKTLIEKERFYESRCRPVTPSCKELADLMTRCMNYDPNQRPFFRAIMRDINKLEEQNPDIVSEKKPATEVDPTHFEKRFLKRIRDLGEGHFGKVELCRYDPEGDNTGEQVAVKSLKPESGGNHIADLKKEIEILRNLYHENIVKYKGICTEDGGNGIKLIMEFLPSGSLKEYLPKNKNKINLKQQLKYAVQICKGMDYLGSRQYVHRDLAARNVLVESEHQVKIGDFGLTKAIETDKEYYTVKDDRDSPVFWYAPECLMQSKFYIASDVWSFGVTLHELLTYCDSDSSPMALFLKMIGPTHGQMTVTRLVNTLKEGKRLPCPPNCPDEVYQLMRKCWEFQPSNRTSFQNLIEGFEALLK
Sequence of JAK2 (O60674 whole entry): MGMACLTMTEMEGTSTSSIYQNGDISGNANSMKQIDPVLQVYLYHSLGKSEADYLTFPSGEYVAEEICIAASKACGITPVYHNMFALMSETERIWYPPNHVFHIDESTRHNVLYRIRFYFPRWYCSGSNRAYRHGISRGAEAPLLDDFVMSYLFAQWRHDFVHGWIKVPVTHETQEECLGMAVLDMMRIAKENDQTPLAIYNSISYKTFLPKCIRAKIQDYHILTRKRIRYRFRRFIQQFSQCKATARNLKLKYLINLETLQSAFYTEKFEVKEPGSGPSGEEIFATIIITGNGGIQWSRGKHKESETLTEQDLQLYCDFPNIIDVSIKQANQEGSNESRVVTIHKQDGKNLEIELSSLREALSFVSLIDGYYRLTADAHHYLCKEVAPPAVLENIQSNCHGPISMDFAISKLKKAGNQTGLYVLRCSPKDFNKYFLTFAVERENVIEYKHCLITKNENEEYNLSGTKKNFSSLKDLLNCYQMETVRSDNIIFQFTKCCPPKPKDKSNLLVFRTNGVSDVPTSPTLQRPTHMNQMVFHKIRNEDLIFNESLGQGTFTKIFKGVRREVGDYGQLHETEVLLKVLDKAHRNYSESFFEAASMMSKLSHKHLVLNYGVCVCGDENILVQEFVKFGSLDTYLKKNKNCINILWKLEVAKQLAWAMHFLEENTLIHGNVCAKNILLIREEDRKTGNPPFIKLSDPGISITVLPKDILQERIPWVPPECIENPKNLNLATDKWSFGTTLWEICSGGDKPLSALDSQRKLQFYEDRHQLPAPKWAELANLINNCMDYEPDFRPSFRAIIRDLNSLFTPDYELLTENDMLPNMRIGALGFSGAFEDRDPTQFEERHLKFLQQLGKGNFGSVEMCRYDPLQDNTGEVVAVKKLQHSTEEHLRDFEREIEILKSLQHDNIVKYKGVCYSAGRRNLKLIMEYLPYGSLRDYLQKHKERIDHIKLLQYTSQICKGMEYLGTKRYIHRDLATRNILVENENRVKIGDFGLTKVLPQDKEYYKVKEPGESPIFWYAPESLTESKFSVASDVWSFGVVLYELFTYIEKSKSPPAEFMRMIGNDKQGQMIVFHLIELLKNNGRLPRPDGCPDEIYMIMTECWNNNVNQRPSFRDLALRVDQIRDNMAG

NDI-031301 was tested, and the Ki (JAK1) was 2200 nM, the Ki (JAK2) was 2750 nM and the Ki (JAK3) was 2480 nM. It also gave a Ki (TYK2) of 130 nM.
